Measured values from ChEMBL document CHEMBL3882241, “Compounds inhibiting the binding of sap for treating osteoarthritis” (2006).
Activity calls are given as the source filed them. The rule behind the calls is not given here.

How the values were obtained:
[1] = biological target: Serum amyloid P-component (Homo sapiens) (UniProt P02743); assay: Inhibition of calcium dependent [125I]serum amyloid P-component (unknown origin) binding to immobilized Neisseria meningitidis at 200 uM incubated for 2 hrs by fluorescence/electron microscopy relative to control
Sequence of Serum amyloid P-component (Homo sapiens) (P02743 whole entry): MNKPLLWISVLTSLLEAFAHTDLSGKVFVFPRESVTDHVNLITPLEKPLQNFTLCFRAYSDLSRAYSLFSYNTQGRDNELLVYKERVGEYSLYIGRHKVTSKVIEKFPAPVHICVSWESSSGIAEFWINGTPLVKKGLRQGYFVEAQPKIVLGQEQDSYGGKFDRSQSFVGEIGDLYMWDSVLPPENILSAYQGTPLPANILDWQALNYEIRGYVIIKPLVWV

[2] = biological target: Serum amyloid P-component (Homo sapiens) (UniProt P02743); assay: Inhibition of calcium dependent [125I]serum amyloid P-component (unknown origin) binding to immobilized influenza virus A/Shanghai/24/90 at 2 mM incubated for 2 hrs by fluorescence/electron microscopy relative to control
[3] = biological target: Serum amyloid P-component (Homo sapiens) (UniProt P02743); assay: Inhibition of calcium dependent [125I]serum amyloid P-component (unknown origin) binding to immobilized chicken erythrocyte native long chromatin at 2 uM incubated for 2 hrs by gamma counting relative to control
[4] = biological target: Serum amyloid P-component (Homo sapiens) (UniProt P02743); assay: Inhibition of calcium dependent [125I]serum amyloid P-component (unknown origin) binding to immobilized chicken erythrocyte native long chromatin at 200 uM incubated for 2 hrs by gamma counting relative to control
[5] = biological target: Serum amyloid P-component (Homo sapiens) (UniProt P02743); assay: Inhibition of calcium dependent [125I]serum amyloid P-component (unknown origin) binding to immobilized influenza virus A/Shanghai/24/90 at 200 nM incubated for 2 hrs by fluorescence/electron microscopy relative to control
[6] = biological target: Serum amyloid P-component (Homo sapiens) (UniProt P02743); assay: Inhibition of calcium dependent [125I]serum amyloid P-component (unknown origin) binding to immobilized chicken erythrocyte native long chromatin at 200 nM incubated for 2 hrs by gamma counting relative to control
[7] = biological target: Serum amyloid P-component (Homo sapiens) (UniProt P02743); assay: Inhibition of calcium dependent [125I]serum amyloid P-component (unknown origin) binding to immobilized chicken erythrocyte native long chromatin at 20 uM incubated for 2 hrs by gamma counting relative to control
[8] = biological target: Serum amyloid P-component (Homo sapiens) (UniProt P02743); assay: Inhibition of calcium dependent [125I]serum amyloid P-component (unknown origin) binding to immobilized Neisseria meningitidis at 20 uM incubated for 2 hrs by fluorescence/electron microscopy relative to control
[9] = biological target: Serum amyloid P-component (Homo sapiens) (UniProt P02743); assay: Inhibition of calcium dependent [125I]serum amyloid P-component (unknown origin) binding to immobilized influenza virus A/Shanghai/24/90 at 2 uM incubated for 2 hrs by fluorescence/electron microscopy relative to control
[10] = biological target: Serum amyloid P-component (Homo sapiens) (UniProt P02743); assay: Inhibition of calcium dependent [125I]serum amyloid P-component (unknown origin) binding to immobilized chicken erythrocyte native long chromatin at 2 mM incubated for 2 hrs by gamma counting relative to control
[11] = biological target: Serum amyloid P-component (Homo sapiens) (UniProt P02743); assay: Inhibition of calcium dependent [125I]serum amyloid P-component (unknown origin) binding to immobilized Neisseria meningitidis at 2 uM incubated for 2 hrs by fluorescence/electron microscopy relative to control
[12] = biological target: Serum amyloid P-component (Homo sapiens) (UniProt P02743); assay: Inhibition of calcium dependent [125I]serum amyloid P-component (unknown origin) binding to immobilized influenza virus A/Shanghai/24/90 at 200 uM incubated for 2 hrs by fluorescence/electron microscopy relative to control
[13] = biological target: Serum amyloid P-component (Homo sapiens) (UniProt P02743); assay: Inhibition of calcium dependent [125I]serum amyloid P-component (unknown origin) binding to immobilized influenza virus A/Shanghai/24/90 at 20 uM incubated for 2 hrs by fluorescence/electron microscopy relative to control
[14] = biological target: Serum amyloid P-component (Homo sapiens) (UniProt P02743); assay: Inhibition of calcium dependent [125I]serum amyloid P-component (unknown origin) binding to immobilized Neisseria meningitidis at 200 nM incubated for 2 hrs by fluorescence/electron microscopy relative to control
[15] = biological target: Serum amyloid P-component (Homo sapiens) (UniProt P02743); assay: Inhibition of calcium dependent [125I]serum amyloid P-component (unknown origin) binding to immobilized Neisseria meningitidis at 2 mM incubated for 2 hrs by fluorescence/electron microscopy relative to control
Homo sapiens [16] = assay: Reduction of serum amyloid P-component in amyloidosis patient at 15 mg, sc bid for 2 months; type: functional
Homo sapiens [17] = assay: Reduction of serum amyloid P-component in amyloidosis patient at 10 mg, sc bid for 3 months; type: functional
[18] = biological target: Serum amyloid P-component (Homo sapiens) (UniProt P02743); assay: Inhibition of serum amyloid P-component (unknown origin) binding to immobilized amyloid beta 1 to 42 fibrils in presence of EDTA followed by re-exposure to SAP and calcium addition and re-exposure to compound at 50 umol/L by surface plasma resonance
[19] = biological target: Serum amyloid P-component (Homo sapiens) (UniProt P02743); assay: Inhibition of serum amyloid P-component (unknown origin) binding to immobilized amyloid beta 1 to 42 fibrils at 100 umol/L pre-incubated before calcium addition by surface plasma resonance
[20] = biological target: Serum amyloid P-component (Homo sapiens) (UniProt P02743); assay: Inhibition of serum amyloid P-component (unknown origin) binding to immobilized amyloid beta 1 to 42 fibrils at 500 umol/L in presence of calcium by surface plasma resonance
[21] = biological target: Serum amyloid P-component (Homo sapiens) (UniProt P02743); conditions: 10 mM
Description: Inhibition of calcium dependent [125I]serum amyloid P-component (unknown origin) binding to immobilized Neisseria meningitidis at 10 mM incubated for 2 hrs by fluorescence/electron microscopy relative to control

SMILES	inhibition [1] [%]	inhibition [2] [%]	inhibition [3] [%]	inhibition [4] [%]	inhibition [5] [%]	inhibition [6] [%]	inhibition [7] [%]	inhibition [8] [%]	inhibition [9] [%]	inhibition [10] [%]	inhibition [11] [%]	inhibition [12] [%]	inhibition [13] [%]	inhibition [14] [%]	inhibition [15] [%]	further results
O=C(O)[C@H]1CCCN1C(=O)Cc1ccc(CC(=O)N2CCC[C@@H]2C(=O)O)cc1	100	89	19	66	37	4	39	73	65	92	64	89	85	7	100	–
O=C(O)[C@H]1CCCN1C(=O)Cc1cccc(CC(=O)N2CCC[C@@H]2C(=O)O)c1	100	82	18	94	25	0	56	92	68	98	64	77	73	28	100	–
O=C(O)[C@H]1CCCN1C(=O)Cc1cc(O)c(CC(=O)N2CCC[C@@H]2C(=O)O)cc1O	100	89	45	88	24	0	78	95	57	97	76	89	80	1	100	–
O=C(O)[C@H]1CCCN1C(=O)CCCCC(=O)N1CCC[C@@H]1C(=O)O	79	98	29	87	36	1	69	74	81	93	61	96	90	5	100	inhibition (INH) (Homo sapiens [16]): 95%; inhibition (INH) (Homo sapiens [17]): 95%
C[N+](C)(C)CCOP(=O)([O-])O	3	3	0	3	0	2	0	4	2	19	5	5	5	0	24	–
O=C(O)[C@H]1CCCN1C(=O)COc1ccc(OCC(=O)N2CCC[C@@H]2C(=O)O)cc1	65	87	36	75	3	1	56	74	77	91	65	84	82	0	100	–
NCCOP(=O)(O)O	41	69	9	59	1	3	36	32	8	94	18	51	42	7	95	–
O=C(O)[C@H]1CCCN1C(=O)[C@H]1CC[C@@H](C(=O)N2CCC[C@@H]2C(=O)O)CC1	100	92	35	94	0	1	67	93	76	100	73	89	83	31	100	–
C[C@H](CS)C(=O)N1CCC[C@@H]1C(=O)O	–	–	–	–	12	–	–	50	30	–	42	51	40	3	–	inhibition [18]: Active; inhibition [19]: Active; inhibition [20]: Active
O=C(O)[C@H]1CCCN1C(=O)Cc1ccc(CC(=O)N2CCC[C@@H]2C(=O)O)c2ccccc12	100	98	35	96	4	15	77	89	64	100	69	94	95	13	100	–
Cc1c(OCC(=O)N2CCC[C@@H]2C(=O)O)cccc1OCC(=O)N1CCC[C@@H]1C(=O)O	100	85	22	95	24	0	65	93	65	98	64	81	81	1	100	–
O=C(O)[C@H]1CCCN1C(=O)COc1cccc2c(OCC(=O)N3CCC[C@@H]3C(=O)O)cccc12	100	80	51	82	23	12	74	81	51	96	72	76	64	30	100	–
O=C(O)CN(CCN(CC(=O)O)CC(=O)O)CC(=O)O	–	–	–	–	–	–	–	–	–	–	–	–	–	–	–	inhibition [21]: 100%
O=C(O)[C@H]1CCCN1C(=O)COc1ccccc1OCC(=O)N1CCC[C@@H]1C(=O)O	100	94	34	89	44	7	77	87	68	96	77	93	88	18	100	–
COc1cccc(OCC(=O)N2CCC[C@@H]2C(=O)O)c1OCC(=O)N1CCC[C@@H]1C(=O)O	93	89	–	96	16	11	75	92	52	100	74	77	62	19	100	–
